For six compounds, IC50 results are on record in US6838453B2, “Antagonist derivatives of the vitronectin receptor” (Aventis Pharma S.A., priority 2000, dated 2005).

Each structure is given as a SMILES string.

Sequence of human αvβ3 receptor (P06756 31-889 limits assumed): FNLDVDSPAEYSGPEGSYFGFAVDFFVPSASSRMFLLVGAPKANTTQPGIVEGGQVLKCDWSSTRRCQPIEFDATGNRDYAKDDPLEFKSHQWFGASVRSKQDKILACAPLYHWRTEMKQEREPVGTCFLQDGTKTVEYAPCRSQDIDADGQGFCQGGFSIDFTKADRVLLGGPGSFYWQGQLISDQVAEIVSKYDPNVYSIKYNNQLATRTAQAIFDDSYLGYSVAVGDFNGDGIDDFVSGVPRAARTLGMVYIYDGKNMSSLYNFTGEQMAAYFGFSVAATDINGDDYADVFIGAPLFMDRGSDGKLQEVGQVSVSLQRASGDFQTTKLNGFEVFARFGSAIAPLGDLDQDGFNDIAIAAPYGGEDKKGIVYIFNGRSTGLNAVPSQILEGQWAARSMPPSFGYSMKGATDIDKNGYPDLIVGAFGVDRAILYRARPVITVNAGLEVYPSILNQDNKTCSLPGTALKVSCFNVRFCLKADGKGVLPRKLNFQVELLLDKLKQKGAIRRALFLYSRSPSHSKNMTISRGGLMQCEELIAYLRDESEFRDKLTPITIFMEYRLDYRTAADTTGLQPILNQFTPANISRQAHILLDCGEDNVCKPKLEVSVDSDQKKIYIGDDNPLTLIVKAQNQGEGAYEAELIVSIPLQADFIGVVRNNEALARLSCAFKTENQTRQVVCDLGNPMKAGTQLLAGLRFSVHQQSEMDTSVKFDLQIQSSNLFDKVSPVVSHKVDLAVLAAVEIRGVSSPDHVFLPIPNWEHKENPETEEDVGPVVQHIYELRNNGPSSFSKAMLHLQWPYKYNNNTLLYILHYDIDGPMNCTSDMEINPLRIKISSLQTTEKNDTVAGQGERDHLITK
Sequence of human αvβ3 receptor (P06756 891-1048 limits assumed): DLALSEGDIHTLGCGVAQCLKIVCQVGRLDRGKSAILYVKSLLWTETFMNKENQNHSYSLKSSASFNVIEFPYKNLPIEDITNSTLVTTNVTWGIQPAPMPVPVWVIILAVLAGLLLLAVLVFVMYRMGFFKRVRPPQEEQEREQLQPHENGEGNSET
Sequence of human αvβ3 receptor (P05106 27-788): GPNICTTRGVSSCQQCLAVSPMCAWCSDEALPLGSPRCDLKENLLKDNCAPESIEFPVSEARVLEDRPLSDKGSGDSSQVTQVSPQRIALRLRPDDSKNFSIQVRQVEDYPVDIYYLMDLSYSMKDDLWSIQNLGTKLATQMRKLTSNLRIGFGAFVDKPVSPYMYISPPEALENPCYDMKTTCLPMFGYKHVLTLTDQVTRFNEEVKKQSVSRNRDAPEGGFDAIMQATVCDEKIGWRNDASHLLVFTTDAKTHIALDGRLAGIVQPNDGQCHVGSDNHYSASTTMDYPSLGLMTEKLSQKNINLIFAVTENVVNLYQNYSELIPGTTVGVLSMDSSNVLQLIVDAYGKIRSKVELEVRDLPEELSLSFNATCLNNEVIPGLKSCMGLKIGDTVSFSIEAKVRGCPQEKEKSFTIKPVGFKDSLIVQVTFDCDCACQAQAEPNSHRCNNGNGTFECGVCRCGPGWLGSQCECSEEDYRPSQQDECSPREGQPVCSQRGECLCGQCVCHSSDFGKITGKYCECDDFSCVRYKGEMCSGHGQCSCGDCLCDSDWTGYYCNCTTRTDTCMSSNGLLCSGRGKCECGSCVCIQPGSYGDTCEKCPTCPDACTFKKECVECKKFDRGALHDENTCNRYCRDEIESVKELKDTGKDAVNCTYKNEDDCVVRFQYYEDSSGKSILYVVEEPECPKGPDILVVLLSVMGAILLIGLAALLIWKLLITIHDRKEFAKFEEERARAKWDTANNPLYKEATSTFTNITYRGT

This assay concerns the target human αvβ3 receptor (Homo sapiens, UniProt P05106+P06756). Nature of the assay: Kistrin/Vitronectin Receptor (αvβ3) ELISA test. The note with it: Kistrin-coated plates, co-incubated 3 hours at ambient temperature, 4B12-HRP antibody, OD 450 nm, read-out: K/VnR IC50. In kind it is binding. As for the experimental part:
Kistrin/Vitronectin Receptor (αvβ3) ELISA Test
96-well MaxiSorp planes are coated overnight at […] with 100 μl of Kistrin at 1 μg/ml (dilution in a coating buffer: carbonate 0.05 M/NaOH pH 9.6). The next day, the wells are emptied and the ligands (kistrin) are then fixed (fixing buffers: PBS containing 0.5% BSA (pH=7.4)) for 1 hour at ambient temperature with gentle agitation at 125 rpm. The wells are washed six times (washing buffer: PBS containing 0.05% of Tween 20 (pH 7.7) then the following are added per well and in this order: • 40 μl of incubation buffer • 10 μl of the dilution of the product to be tested (the products are diluted in a 50:50 mixture DMSO/Water) • 50 μl of human αvβ3 receptor (cf Pytella et al. Methods Enzymol. (1987) 144 (Dilution in incubation buffer, to be adapted according to the receptor batch and according to the ligand). The ligand, the αvβ3 receptor and the products to be studied are co-incubated for 3 hours at ambient temperature with gentle agitation at 125 rpm.
The wells are again washed six times, then incubated for 2 hours at ambient temperature with gentle agitation at 125 rpm, in the presence of 100 μl of anti-receptor antibody conjugated to a peroxidase (The 4B12-HRP antibody is diluted in an incubation buffer (50 mM TRIS pH 7.4; 0.5% BSA; 0.05% Tween 20; 1 mM MnCl2; 50 μM CaCl2; 50 μM MgCl2; 100 mM NaCl) The dilution is adapted according to the receptor batch.
The wells are then washed six times before measuring the ligand-receptor bond carried out using a peroxidase developer kit (TBM Microwell Peroxidase Substrate System Kirkegaard; Cat. Ref. 50-76-00).
This kit contains a bottle A of substrate (3,3′,5,5′-tetramethylebenzidine at 0.4 g/l) and a bottle B (H2O2 at 0.02% in a Citrate/Citric acid buffer). Extemporaneously, a volume of A is mixed with a volume of B, then the reaction mixture is distributed at a rate of 100 μl/well.
The enzymatic reaction develops between 6 and 10 minutes for Kistrin/αvβ3 then its evolution is stopped by the addition of 100 μl of 1M phosphoric acid. The optical density is determined at 450 nm.
Expression of the Results
The following curve is plotted: the bond percentage as a function of the logarithm of each concentration of the tested product.
For each product, the IC50 is determined according to the following formula: IC50=(B0+Bmin)/2 • B0=Maximum bond in the absence of any product • Bmin =Minimum bond in the presence of the highest concentration of the product.
(In general: An ELISA detects its analyte on a solid surface through an enzyme-linked reagent.)
With `O=C(CCCOc1ccc(C[C@H](Nc2nc3cc(S(=O)(=O)Nc4ccccc4)ccc3o2)C(=O)O)cc1)NC1=NCCCN1` [Example 30, N-[5-[(phenylamino)sulphonyl]-2-benzoxazolyl]-O-[4-oxo-4-[(1,4,5,6-tetrahydro-2-pyrimidinyl)amino]butyl]-L-tyrosine], the IC50 worked out at 7 nM. Consider `CN(c1ccccc1)S(=O)(=O)c1ccc2oc(N[C@@H](Cc3ccc(OCCCC(=O)NC4=NCCCN4)cc3)C(=O)O)nc2c1` [Example 31, N-[5-[(N-methylphenylamino)sulphonyl]-2-benzoxazolyl]-O-[4-oxo-4-[(1,4,5,6-tetrahydro-2-pyrimidinyl)amino]butyl]-L-tyrosine], for which the IC50 was 5 nM. Regarding `O=C(CCCOc1ccc(C[C@H](Nc2nc3ccc(Cl)cc3s2)C(=O)O)cc1)NC1=NCCCN1` [Example 32, N-(6-chloro-2-benzothiazolyl)-O-[4-oxo-4-[(1,4,5,6-tetrahydro-2-pyrimidinyl)amino]butyl]-L-tyrosine], the IC50 turned out to be 10 nM.

Consider `O=C(CCCOc1ccc(C[C@H](Nc2nc3cccc(Br)c3s2)C(=O)O)cc1)NC1=NCCCN1` [Example 33, N-(7-bromo-2-benzothiazolyl)-O-[4-oxo-4-[(1,4,5,6-tetrahydro-2-pyrimidinyl)amino]butyl]-L-tyrosine], for which the IC50 came out at 7 nM.

With `O=C(CCCOc1ccc(C[C@H](Nc2nc3cc(Br)ccc3s2)C(=O)O)cc1)NC1=NCCCN1` [Example 34, N-(5-bromo-2-benzothiazolyl)-O-[4-oxo-4-[(1,4,5,6-tetrahydro-2-pyrimidinyl)amino]butyl]-L-tyrosine], the IC50 amounted to 18 nM. On to `O=C(CCCOc1ccc(C[C@H](Nc2nc3ccccc3[nH]2)C(=O)O)cc1)NC1=NCCCN1` [Example 35, N-(1H-benzimidazol-2-yl)-O-[4-oxo-4-[(1,4,5,6-tetrahydro-2-pyrimidinyl)amino]butyl]-L-tyrosine], for which the IC50 worked out at 18 nM.
